Where two headings read alike, the source gives them in different places.
Experiments:
PPO2 wild-type = PPO2 wild-type (Amaranthus tuberculatus, UniProt Q0NZW9); assay: in vitro inhibition assay, recombinant PPO2 enzyme; format: biochemical
E. coli hemG strain = assay: E. coli hemG growth assay (strain sensitivity); format: cell-based, Escherichia coli; settings: data not shown; probably impaired uptake or hydrolysis
[1] = target: T1, PPO2 wild-type in Escherichia coli hemG (Amaranthus tuberculatus, UniProt Q0NZW9); format: cell-based; settings: read-out: IC50 (E. coli hemG growth)
T1 sequence (Q0NZW9 31-534): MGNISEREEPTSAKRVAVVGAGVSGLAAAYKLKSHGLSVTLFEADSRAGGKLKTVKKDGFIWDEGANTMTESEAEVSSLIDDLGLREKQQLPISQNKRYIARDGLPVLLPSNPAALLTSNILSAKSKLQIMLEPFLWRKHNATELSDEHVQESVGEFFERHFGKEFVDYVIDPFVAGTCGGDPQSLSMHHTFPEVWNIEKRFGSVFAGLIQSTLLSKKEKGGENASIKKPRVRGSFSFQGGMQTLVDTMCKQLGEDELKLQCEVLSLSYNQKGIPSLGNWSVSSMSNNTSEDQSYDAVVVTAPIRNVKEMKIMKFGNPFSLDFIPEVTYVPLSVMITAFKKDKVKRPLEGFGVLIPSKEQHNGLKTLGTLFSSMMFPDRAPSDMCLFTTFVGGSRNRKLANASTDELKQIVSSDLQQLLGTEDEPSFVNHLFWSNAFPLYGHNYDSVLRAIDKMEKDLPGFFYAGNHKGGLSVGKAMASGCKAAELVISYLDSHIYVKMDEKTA

[2] = target: T2, PPO2 ΔG210 in Escherichia coli hemG (Amaranthus tuberculatus, UniProt Q0NZW9, DEL210-210, cells depend on it); format: cell-based; settings: read-out: IC50 (E. coli hemG growth)
T2 sequence (Q0NZW9 with tags, fused parts or gaps DEL210-210): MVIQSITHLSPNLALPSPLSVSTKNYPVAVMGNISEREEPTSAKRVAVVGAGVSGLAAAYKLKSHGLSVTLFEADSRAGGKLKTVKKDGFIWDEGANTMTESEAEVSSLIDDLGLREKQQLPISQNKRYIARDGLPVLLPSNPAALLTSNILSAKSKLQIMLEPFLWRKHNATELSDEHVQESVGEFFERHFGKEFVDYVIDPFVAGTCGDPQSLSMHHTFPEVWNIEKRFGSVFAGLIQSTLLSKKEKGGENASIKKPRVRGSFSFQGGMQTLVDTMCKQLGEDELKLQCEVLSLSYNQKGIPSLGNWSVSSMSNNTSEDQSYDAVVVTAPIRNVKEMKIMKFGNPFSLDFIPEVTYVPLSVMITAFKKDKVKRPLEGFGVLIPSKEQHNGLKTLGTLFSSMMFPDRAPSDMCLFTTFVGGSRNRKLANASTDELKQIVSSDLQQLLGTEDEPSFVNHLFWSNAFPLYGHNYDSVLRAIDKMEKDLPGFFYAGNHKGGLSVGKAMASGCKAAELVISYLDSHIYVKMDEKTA

[3] = test system: T1 35S::AMATU PPO2 R128A ΔG210 Arabidopsis lines; assay: herbicide treatment of transgenic Arabidopsis T1 lines; format: in vivo, Arabidopsis thaliana; settings: foliar-applied 2×, 1×, 0.5× field dose, 7 days after treatment
[4] = test system: T1 35S::AMATU PPO2 R128M ΔG210 Arabidopsis lines; assay: as above; format: in vivo, Arabidopsis thaliana; settings: foliar-applied 2×, 1×, 0.5× field dose, 7 days after treatment
[5] = test system: T1 35S::AMATU PPO2 R128I ΔG210 Arabidopsis lines; assay: as above; format: in vivo, Arabidopsis thaliana; settings: foliar-applied 2×, 1×, 0.5× field dose, 7 days after treatment
[6] = test system: T1 35S::AMATU PPO2 R128N ΔG210 Arabidopsis lines; assay: as above; format: in vivo, Arabidopsis thaliana; settings: foliar-applied 2×, 1×, 0.5× field dose, 7 days after treatment
[7] = test system: T1 35S::AMATU PPO2 R128T ΔG210 Arabidopsis lines; assay: as above; format: in vivo, Arabidopsis thaliana; settings: foliar-applied 2×, 1×, 0.5× field dose, 7 days after treatment
[8] = test system: PPO1 enzyme carrying A212T mutation; design: method as in PMID 31788953; settings: cited from earlier work
[9] = Wild-type PPO2, recombinant protein activity in vitro

CS(=O)(=O)NC(=O)c1cc(Oc2ccc(C(F)(F)F)cc2Cl)ccc1[N+](=O)[O-] [Fomesafen, fomesafen]
IC50 (PPO2 wild-type; [9]): 7.13 nM
sensitivity of E. coli hemG strain (E. coli hemG strain): not sensitive

CCOC(=O)C(C)OC(=O)c1cc(Oc2ccc(C(F)(F)F)cc2Cl)ccc1[N+](=O)[O-] (stereo not shown) [Lactofen, lactofen]
IC50 (PPO2 wild-type; [9]): 0.415 nM
IC50 [1]: 62.4 nM
IC50 [2]: 357 nM

CC(C)N(C)S(=O)(=O)NC(=O)c1cc(-n2c(=O)cc(C(F)(F)F)n(C)c2=O)c(F)cc1Cl [Saflufenacil, saflufenacil]
IC50 (PPO2 wild-type; read-out: IC50): 1.89 nM
IC50 [1]: 31.9 nM
IC50 [2]: 2120 nM
herbicide efficacy, visual assessment of plant growth [3]: two T1 lines expressing R128A ΔG210 showed significant resistance at each applied rate
herbicide efficacy, visual assessment of plant growth [4]: few T1 plants showed persistent growth with saflufenacil at the 2× and 0.5× rate

C#CCN1C(=O)C(F)(F)Oc2cc(F)c(-n3c(=O)n(C)c(=S)n(C)c3=O)cc21 [Trifludimoxazin, trifludimoxazin]
IC50 (PPO2 wild-type; Wild-type PPO2, recombinant protein activity in vitro, read-out: IC50): 0.245 nM
IC50 [1]: 0.927 nM
IC50 [2]: 1.18 nM
herbicide efficacy, visual assessment of plant growth [3]: reduced plant growth at 2×, 1× and 0.5× the rate of all five T1 plants
herbicide efficacy, visual assessment of plant growth [5]: more controlled by trifludimoxazin than saflufenacil at all the used rates
herbicide efficacy, visual assessment of plant growth [6]: more reduced by trifludimoxazin than saflufenacil at each rate
herbicide efficacy, visual assessment of plant growth [7]: more reduced by trifludimoxazin than saflufenacil at each rate
herbicide efficacy, visual assessment of plant growth [4]: reduced by both trifludimoxazin and saflufenacil at 1×
inhibition of PPO1 A212T enzyme [8]: fully inhibit

— publication PMC10092844, “Inhibition profile of trifludimoxazin towards PPO2 target site mutations” (Pest Management Science, 2022)
